Laboratory results from patent US20100292255A1, “Therapeutic Compounds and Their Use in Treating Diseases and Disorders” (Myriad Pharmaceuticals, Inc., priority 2007, published 2010).

System: T1, purified human Hsp90
T1 construct: purified human Hsp90 (Stressgen, SPP-770)
Assay: Hsp90 binding assay: displacement of BODIPY-labeled geldanamycin measured by fluorescence polarization
Conditions: 5 μM compound; BODIPY-GM 10 nM, Hsp90 30 nM, overnight at room temperature
Outline: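 Purified human Hsp90 at 30 nM and 10 nM BODIPY-GM tracer were incubated overnight at room temperature with compound in 2% DMSO. The buffer was 20 mM HEPES-KOH pH 7.3, 50 mM KCl, 5 mM MgCl2, 20 mM Na2MoO4, 2 mM DTT. Background-subtracted mP values read at 485/530 nm were normalized to DMSO wells to give % inhibition.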

GM displacement from purified Hsp90 measured by FP Inhibition by 5 μM compd. (%)	Compound
14.0%	COc1ccc(OC(F)(F)F)c(Sc2nc3c(N)ncn(CCC4CCN(C=O)CC4)c-3n2)c1 [compound 78]
34.0%	COc1ccc(C#N)c(Sc2nc3c(N)ncn(CCC4CCN(C=O)CC4)c-3n2)c1 [compound 80]
19.0%	CCCC(=O)N1CCC(CCn2cnc(N)c3nc(Sc4cc5c(cc4Br)OCCO5)nc2-3)CC1 [compound 83, 8-[(7-Bromo-2,3-dihydro-1,4-benzodioxin-6-yl)thio]-3-[2-(1-butyrylpiperidin-4-yl)ethyl]-3H-purin-6-amine]
35.0%	Nc1ncn(CCC2CCN(C=O)CC2)c2nc(Sc3cc4c(cc3Br)CCC4)nc1-2 [compound 85]
20.0%	Nc1ncn(CCC2CCN(C=O)CC2)c2nc(Sc3cc4c(cc3Br)C(=O)CC4)nc1-2 [compound 87, 4-(2-{6-Amino-8-[(6-bromo-1-oxo-2,3-dihydro-1H-inden-5-yl)thio]-3H-purin-3-yl}ethyl)piperidine-l-carbaldehyde]
32.0%	Nc1ncn(CCC2CCN(C(=O)CO)CC2)c2nc(Sc3cc4c(cc3Br)OCCO4)nc1-2 [compound 91, 2-[4-(2-{6-Amino-8-[(7-bromo-2,3-dihydro-1,4-benzodioxin-6-yl)thio]-3H-purin-3-yl}ethyl)piperidin-1-yl]-2-oxoethanol]

More lines, now with the values behind:

Compound	GM displacement from purified Hsp90 measured by FP Inhibition by 5 μM compd. (%)
CS(=O)(=O)N1CCCC(CCn2cnc(N)c3nc(Sc4cc5c(cc4C#N)OCCO5)nc2-3)C1 (stereo not drawn) [compound 53, 7-[(6-Amino-3-{2-[1-(methylsulfonyl)piperidin-3-yl]ethyl}-3H-purin-8-yl)thio]-2,3-dihydro-1,4-benzodioxine-6-carbonitrile]	60.0%
CS(=O)(=O)N1CCC(CCn2cnc(N)c3nc(Sc4cc5c(cc4C#N)OCCO5)nc2-3)CC1 [compound 55]	26.0%
N#Cc1cc2c(cc1Sc1nc3c(N)ncn(CCn4c(=O)n5n(c4=O)CC=CC5)c-3n1)OCO2 [compound 63]	34.0%
Nc1ncn(CCC2CCN(C=O)CC2)c2nc(Sc3cc4c(cc3[N+](=O)[O-])OCO4)nc1-2 [compound 65, 4-(2-{6-Amino-8-[(6-nitro-1,3-benzodioxol-5-yl)thio]-3H-purin-3-yl}ethyl)piperidine-1-carbaldehyde]	25.0%
CC(=O)N1CCC(CCn2cnc(N)c3nc(Sc4cc5c(cc4[N+](=O)[O-])OCCO5)nc2-3)CC1 [compound 69, 3-[2-(1-Acetylpiperidin-4-yl)ethyl]-8-[(7-nitro-2,3-dihydro-1,4-benzodioxin-6-yl)thio]-3H-purin-6-amine]	46.0%
CC(=O)N1CCC(CCn2cnc(N)c3nc(Sc4cc5c(cc4[N+](=O)[O-])OCO5)nc2-3)CC1 [compound 71, 3-[2-(1-Acetylpiperidin-4-yl)ethyl]-8-[(6-nitro-1,3-benzodioxol-5-yl)thio]-3H-purin-6-amine]	23.0%
CC(=O)N1CCC(CCn2cnc(N)c3nc(Sc4cc5c(cc4Cl)OCCO5)nc2-3)CC1 [compound 72, 3-[2-(1-Acetylpiperidin-4-yl)ethyl]-8-[(7-chloro-2,3-dihydro-1,4-benzodioxin-6-yl)thio]-3H-purin-6-amine]	23.0%
CCC(=O)N1CCC(CCn2cnc(N)c3nc(Sc4cc5c(cc4C#N)C(=O)CC5)nc2-3)CC1 [compound 74, 6-({6-Amino-3-[2-(1-propionylpiperidin-4-yl)ethyl]-3H-purin-8-yl}thio)-3-oxoindane-5-carbonitrile]	18.0%

Same assay, conditions: BODIPY-GM 10 nM, Hsp90 30 nM, overnight at room temperature; read-out: GM displacement from purified Hsp90 measured by FP IC 50

IC50	Compound
70 nM	Nc1ncnc2c1nc(Sc1cc3c(cc1I)CCC3)n2CCC1CCN(C=O)CC1 [compound 76, 4-(2-{6-Amino-8-[(6-iodo-2,3-dihydro-1H-inden-5-yl)thio]-9H-purin-9-yl}ethyl)piperidine-l-carbaldehyde]
400 nM	COc1ccc(OC(F)(F)F)c(Sc2nc3c(N)ncnc3n2CCC2CCN(C=O)CC2)c1 [compound 77, 4-[2-(6-Amino-8-{[5-methoxy-2-(trifluoromethoxy)phenyl]thio}-9H-purin-9-yl)ethyl]piperidine-1-carbaldehyde]
700 nM	COc1ccc(C#N)c(Sc2nc3c(N)ncnc3n2CCC2CCN(C=O)CC2)c1 [compound 79]
100 nM	CCCC(=O)N1CCC(CCn2c(Sc3cc4c(cc3Br)OCCO4)nc3c(N)ncnc32)CC1 [compound 81, 8-[(7-Bromo-2,3-dihydro-1,4-benzodioxin-6-yl)thio]-9-[2-(1-butyrylpiperidin-4-yl)ethyl]-9H-purin-6-amine]
295 nM	CCCC(=O)N1CCC(CCn2c(Sc3cc4c(cc3Br)OCO4)nc3c(N)ncnc32)CC1 [compound 82, 8-[(6-Bromo-1,3-benzodioxol-5-yl)thio]-9-[2-(1-butyrylpiperidin-4-yl)ethyl]-9H-purin-6-amine]
20 nM	Nc1ncnc2c1nc(Sc1cc3c(cc1Br)CCC3)n2CCC1CCN(C=O)CC1 [compound 84]
60 nM	Nc1ncnc2c1nc(Sc1cc3c(cc1Br)C(=O)CC3)n2CCC1CCN(C=O)CC1 [compound 86, 4-(2{6-Amino-8-[(6-bromo-l-oxo-2,3-dihydro-1H-inden-5-yl)thio]-9H-purin-9-yl}ethyl)piperidine-1-carbaldehyde]
80 nM	C[C@H](O)C(=O)N1CCC(CCn2c(Sc3cc4c(cc3Br)OCCO4)nc3c(N)ncnc32)CC1 [compound 88, (2S)-1-[4-(2-{6-Amino-8-[(7-bromo-2,3-dihydro-1,4-benzodioxin-6-yl)thio]-9H-purin-9-yl}ethyl)piperidin-1-yl]-1-oxopropan-2-ol]
90 nM	Nc1ncnc2c1nc(Sc1cc3c(cc1Br)OCCO3)n2CCC1CCN(C(=O)CO)CC1 [compound 90, 2-[4-(2-{6-Amino-8-[(7-bromo-2,3-dihydro-1,4-benzodioxin-6-yl)thio]-9H-purin-9-yl}ethyl)piperidin-1-yl]-2-oxoethanol]

Second part, the molecule before the results:

Compound	IC50
CS(=O)(=O)N1CCCCC1CCn1c(Sc2cc3c(cc2C#N)OCCO3)nc2c(N)ncnc21 (stereo not drawn) [compound 51, 7-[(6-Amino-9-{2-[1-(methylsulfonyl)piperidin-2-yl]ethyl}-9H-purin-8-yl)thio]-2,3-dihydro-1,4-benzodioxine-6-carbonitrile]	370 nM
CS(=O)(=O)N1CCCC(CCn2c(Sc3cc4c(cc3C#N)OCCO4)nc3c(N)ncnc32)C1 (stereo not drawn) [compound 52, 7-[(6-Amino-9-{2-[1-(methylsulfonyl)piperidin-3-yl]ethyl}-9H-purin-8-yl)thio]-2,3-dihydro-1,4-benzodioxine-6-carbonitrile]	150 nM
CS(=O)(=O)N1CCC(CCn2c(Sc3cc4c(cc3C#N)OCCO4)nc3c(N)ncnc32)CC1 [compound 54, 7-[(6-Amino-9-{2-[1-(methylsulfonyl)piperidin-4-yl]ethyl}-9H-purin-8-yl)thio]-2,3-dihydro-1,4-benzodioxine-6-carbonitrile]	550 nM
N#Cc1cc2c(cc1Sc1nc3c(N)ncnc3n1CCC1CCN(C=O)CC1)OCCO2 [compound 57]	120 nM
Cn1nnnc1N1CCC(CCn2c(Sc3cc4c(cc3C#N)OCCO4)nc3c(N)ncnc32)CC1 [compound 58, 7-[(6-Amino-9-{2-[1-(1-methyl-1H-tetrazol-5-yl)piperidin-4-yl]ethyl}-9H-purin-8-yl)thio]-2,3-dihydro-1,4-benzodioxine-6-carbonitrile]	180 nM
CC(=O)N1CCC(CCn2c(Sc3cc4c(cc3C#N)OCCO4)nc3c(N)ncnc32)CC1 [compound 60, 7-({9-[2-(1-Acetylpiperidin-4-yl)ethyl]-6-amino-9H-purin-8-yl}thio)-2,3-dihydro-1,4-benzodioxine-6-carbonitrile]	60 nM
CCC(=O)N1CCC(CCn2c(Sc3cc4c(cc3C#N)OCO4)nc3c(N)ncnc32)CC1 [compound 61]	200 nM
Nc1ncnc2c1nc(Sc1cc3c(cc1[N+](=O)[O-])OCO3)n2CCC1CCN(C=O)CC1 [compound 64, 4-(2-{6-Amino-8-[(6-nitro-1,3-benzodioxol-5-yl)thio]-9H-purin-9-yl}ethyl)piperidine-1-carbaldehyde]	1500 nM
Nc1ncnc2c1nc(Sc1cc3c(cc1[N+](=O)[O-])OCCO3)n2CCC1CCN(C=O)CC1 [compound 66, 4-(2-{6-Amino-8-[(7-nitro-2,3-dihydro-1,4-benzodioxin-6-yl)thio]-9H-purin-9-yl}ethyl)piperidine-1-carbaldehyde]	73 nM
CC(=O)N1CCC(CCn2c(Sc3cc4c(cc3[N+](=O)[O-])OCCO4)nc3c(N)ncnc32)CC1 [compound 68, 9-[2-(1-Acetylpiperidin-4-yl)ethyl]-8-[(7-nitro-2,3-dihydro-1,4-benzodioxin-6-yl)thio]-9H-purin-6-amine]	50 nM
CC(=O)N1CCC(CCn2c(Sc3cc4c(cc3[N+](=O)[O-])OCO4)nc3c(N)ncnc32)CC1 [compound 70]	455 nM
CC(=O)N1CCC(CCn2c(Sc3cc4c(cc3Cl)OCCO4)nc3c(N)ncnc32)CC1 [compound 73, 9-[2-(1-Acetylpiperidin-4-yl)ethyl]-8-[(7-chloro-2,3-dihydro-1,4-benzodioxin-6-yl)thio]-9H-purin-6-amine]	260 nM
CC(=O)N1CCC(CCn2c(Sc3cc4c(cc3CC#N)OCO4)nc3c(N)ncnc32)CC1 [compound 75, [6-({9-[2-(1-Acetylpiperidin-4-yl)ethyl]-6-amino-9H-purin-8-yl}thio)-1,3-benzodioxol-5-yl]acetonitrile]	2500 nM
